# Laboratory results as given in patent US20220221445A1, “USES OF PATIENT-DERIVED INTESTINAL ORGANOIDS FOR CELIAC DISEASE DIAGNOSIS SCREENING AND TREATMENT” (The Board of TrusteesoftheLelandStanfordJuniorUniversity, priority 2019, published 2022).
# System: active CeD organoids
# Experiment: IL-15 expression and IL-15 gain-of-function in CeD organoids
# Type: cell-based, human
# Settings: gain-of-function treatment
# Text: IL-15 loss-of-function is studied in gliadin-treated, active CeD organoids +/− IL-15 neutralization by soluble recombinant IL-15 receptor (soluble hIL15Rα, R&D #7194-IR) or anti-human IL-15 neutralizing antibody (R&D #MAB647). Endpoints include inhibition of the following gliadin-induced responses: (1) HLA-DQ2:gliadin tetramer-positive T cell abundance by FACS, (2) tetramer(+) CD4^+ T cell or tetramer(−) CD8^+ IEL activation by scRNA-seq and Nanostring digital transcript counting of FACS-sorted immune subsets and (3) inhibition of gliadin-induced epithelial apoptosis and proliferation. Gain-of-function recombinant IL-15 treatment (R&D #247-ILB) of CeD organoids enhances gliadin-induced (1) expansion of HLA-DQ2:gliadin tetramer^82-positive T cells by FACS, (2) activation of these tetramer(+) CD4^+ T cells or tetramer(−) CD8^+ IELs by scRNA-seq and FACS/Nanostring analysis of immune subsets and (3) induction of epithelial apoptosis and proliferation.
substance,measurement,value
recombinant IL-15: recombinant IL-15 (R&D #247-ILB),"effect on gliadin-induced tetramer-positive T cell expansion, T cell activation, epithelial apoptosis and proliferation",enhances
